From publication PMC6017736, “Indole-3-Carbonitriles as DYRK1A Inhibitors by Fragment-Based Drug Design” (Molecules : A Journal of Synthetic Chemistry and Natural …, 2018)
pIC50: −log10 of the molar value.

What was measured:
DYRK1B = DYRK1B (Homo sapiens, UniProt Q9Y463); assay: Protein kinase assay ([γ-33P]-ATP, RS peptide substrate), DYRK1B; format: biochemical; conditions: for remaining activity at 10 µM: 10 µM compound, compared to controls, read-out: Residual Activity at 10 µM DYRK 1B; for pIC50: 15 µM ATP, read-out: IC50 DYRK 1B
Method: (§1) DYRK1A, 1B, 2, 3 (human, recombinant, expressed in E. coli as GST fusion proteins) and CLK1, 2, 3, and 4 (mouse, recombinant, expressed in E. coli as GST fusion proteins) were assayed as described for GSK-3 in Buffer A (supplemented extemporaneously with 0.15 mg BSA/mL + 1 mM DTT) with 1 µg of RS peptide ([…]) as a substrate.

CLK3 = CLK3 (Mus musculus, UniProt O35492); assay: Protein kinase assay ([γ-33P]-ATP, RS peptide substrate), CLK3; format: biochemical; conditions: for remaining activity at 10 µM: 10 µM compound, compared to controls, read-out: Residual Activity at 10 µM CLK3; for pIC50: 15 µM ATP
Method: as §1

CLK2 = CLK2 (Mus musculus, UniProt O35491); assay: Protein kinase assay ([γ-33P]-ATP, RS peptide substrate), CLK2; format: biochemical; conditions: for remaining activity at 10 µM: 10 µM compound, compared to controls, read-out: Residual Activity at 10 µM CLK2; for pIC50: 15 µM ATP
Method: as §1

CLK1 = CLK1 (Mus musculus, UniProt P22518); assay: Protein kinase assay ([γ-33P]-ATP, RS peptide substrate), CLK1; format: biochemical; conditions: for remaining activity at 10 µM: 10 µM compound, compared to controls, read-out: Residual Activity at 10 µM CLK1; for pIC50: 15 µM ATP
Method: as §1

DYRK1A [1] = biological target: T1, DYRK1A (Homo sapiens, UniProt Q13627); assay: Protein kinase assay ([γ-33P]-ATP, RS peptide substrate), DYRK1A; format: biochemical; conditions: for remaining activity at 10 µM: 10 µM compound, compared to controls, read-out: Residual Activity at 10 µM DYRK 1A; for pIC50: 15 µM ATP, read-out: IC50 DYRK 1A
CLK4 = CLK4 (Mus musculus, UniProt O35493); assay: Protein kinase assay ([γ-33P]-ATP, RS peptide substrate), CLK4; format: biochemical; conditions: for remaining activity at 10 µM: 10 µM compound, compared to controls, read-out: Residual Activity at 10 µM CLK4; for pIC50: 15 µM ATP
Method: as §1

DYRK3 = biological target: T2, DYRK3 (Homo sapiens, UniProt O43781); assay: Protein kinase assay ([γ-33P]-ATP, RS peptide substrate), DYRK3; format: biochemical; conditions: for remaining activity at 10 µM: 10 µM compound, compared to controls, read-out: Residual Activity at 10 µM DYRK3; for pIC50: 15 µM ATP
T2 sequence (O43781 1-588): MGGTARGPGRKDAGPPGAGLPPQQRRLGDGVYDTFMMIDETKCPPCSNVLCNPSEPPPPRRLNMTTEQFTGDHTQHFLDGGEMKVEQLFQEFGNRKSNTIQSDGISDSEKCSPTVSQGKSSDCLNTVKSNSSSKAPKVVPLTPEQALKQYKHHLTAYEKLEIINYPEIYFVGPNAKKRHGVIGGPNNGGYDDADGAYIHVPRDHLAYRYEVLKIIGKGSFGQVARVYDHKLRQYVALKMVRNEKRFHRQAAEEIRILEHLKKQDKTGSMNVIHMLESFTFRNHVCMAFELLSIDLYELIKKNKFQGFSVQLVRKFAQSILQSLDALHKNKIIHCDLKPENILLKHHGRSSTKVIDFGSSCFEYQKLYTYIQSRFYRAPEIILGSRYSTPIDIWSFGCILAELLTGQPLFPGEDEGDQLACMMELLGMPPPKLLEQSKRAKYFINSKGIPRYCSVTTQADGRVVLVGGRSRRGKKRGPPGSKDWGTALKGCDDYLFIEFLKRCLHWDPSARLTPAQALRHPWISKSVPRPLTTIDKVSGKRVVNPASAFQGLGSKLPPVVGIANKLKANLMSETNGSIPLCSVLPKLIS
Method: as §1

DYRK2 = biological target: T3, DYRK2 (Homo sapiens, UniProt Q92630); assay: Protein kinase assay ([γ-33P]-ATP, RS peptide substrate), DYRK2; format: biochemical; conditions: for remaining activity at 10 µM: 10 µM compound, compared to controls, read-out: Residual Activity at 10 µM DYRK2; for pIC50: 15 µM ATP
T3 sequence (Q92630 1-601): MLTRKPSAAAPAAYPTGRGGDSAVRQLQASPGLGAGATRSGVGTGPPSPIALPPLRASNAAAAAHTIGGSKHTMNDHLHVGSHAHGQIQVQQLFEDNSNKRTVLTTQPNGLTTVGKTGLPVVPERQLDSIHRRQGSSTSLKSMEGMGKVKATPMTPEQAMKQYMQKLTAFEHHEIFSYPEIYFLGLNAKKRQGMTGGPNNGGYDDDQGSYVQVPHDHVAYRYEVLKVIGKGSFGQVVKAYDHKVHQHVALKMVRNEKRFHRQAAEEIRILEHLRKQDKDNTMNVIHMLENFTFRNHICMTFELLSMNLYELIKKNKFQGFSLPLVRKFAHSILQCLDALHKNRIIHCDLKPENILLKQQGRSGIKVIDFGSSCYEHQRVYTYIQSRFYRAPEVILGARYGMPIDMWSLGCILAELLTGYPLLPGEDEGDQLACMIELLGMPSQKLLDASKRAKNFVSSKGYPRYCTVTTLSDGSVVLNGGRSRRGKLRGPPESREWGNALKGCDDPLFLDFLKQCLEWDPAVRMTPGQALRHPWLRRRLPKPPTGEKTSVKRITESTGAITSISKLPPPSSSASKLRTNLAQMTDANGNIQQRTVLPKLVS
Method: as §1

GSK-3 = assay: Protein kinase assay ([γ-33P]-ATP, GS-1 substrate), GSK-3; conditions: 10 µM compound, compared to controls
Method: First, the kinases were incubated with 10 µM solutions of the compounds and the residual activities compared to controls were measured.
Controls were performed with appropriate dilutions of DMSO. The GS-1 and RS peptide substrates were obtained from Proteogenix (Oberhausbergen, France).
After 30 min incubation at 30 °C, the reaction was stopped by harvesting onto P81 phosphocellulose supernatant (Whatman) using a FilterMate harvester (Packard) and washing in 1% phosphoric acid. Scintillation fluid was added and the radioactivity measured in a Packard counter [52].
All data points for construction of dose response curves were recorded in triplicate.

DYRK1A [2] = biological target: T1, DYRK1A; assay: Ligand-lipophilicity efficiency (pIC50 minus calculated logP); conditions: Table S2
Method: All new compounds were evaluated based on their physicochemical properties regarding Lipinski’s rule of five and the ligand-lipophilicity efficiency (LLE). Both concepts are used to assess the druglikeness of drug development candidates. […] LLE is calculated from pIC50 minus calculated logP [46].

[3] = Cytotoxicity, cell viability by tetrazolium dye assay (XTT assay); format: cell-based; conditions: human, HeLa cells, 1 µM, read-out: Viability of treated HeLa cells relative to control cells
Method: To evaluate the applicability of the 2-substituted indole-3-carbonitrile compounds in cell culture experiments, we assessed toxicity of 6f, 6h, 6s and 13b on HeLa cells by viability assays (Table 4).
The inhibitors were added to the cultured cells from stock solutions in DMSO to the desired final concentration. For cytotoxicity assays, HeLa cells were grown in 96-well plates (20,000–30,000 cells per well) and incubated with the test compounds for 3 days before cell viability was evaluated with the help of a tetrazolium dye assay (XTT assay, AppliChem GmbH, Darmstadt, Germany).

Chain of DYRK1B (Q9Y463 whole entry, the tested form may be a part): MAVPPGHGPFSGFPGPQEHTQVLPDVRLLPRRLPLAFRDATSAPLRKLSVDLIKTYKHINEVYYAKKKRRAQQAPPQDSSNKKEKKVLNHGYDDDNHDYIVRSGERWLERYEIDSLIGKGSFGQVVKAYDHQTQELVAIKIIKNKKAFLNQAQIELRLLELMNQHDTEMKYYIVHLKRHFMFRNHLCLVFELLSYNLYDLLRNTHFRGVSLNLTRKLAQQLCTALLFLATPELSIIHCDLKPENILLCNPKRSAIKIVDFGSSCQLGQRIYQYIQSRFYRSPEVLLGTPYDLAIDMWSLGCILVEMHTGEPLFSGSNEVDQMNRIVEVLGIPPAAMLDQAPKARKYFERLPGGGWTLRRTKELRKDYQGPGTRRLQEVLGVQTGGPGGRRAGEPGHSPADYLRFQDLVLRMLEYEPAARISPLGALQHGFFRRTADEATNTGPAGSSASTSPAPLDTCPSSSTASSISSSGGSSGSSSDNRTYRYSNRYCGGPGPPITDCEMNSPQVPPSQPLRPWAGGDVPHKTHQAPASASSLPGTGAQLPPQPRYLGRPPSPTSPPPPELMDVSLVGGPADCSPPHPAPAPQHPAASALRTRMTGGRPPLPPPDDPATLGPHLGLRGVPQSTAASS
Chain of CLK1 (P22518 whole entry): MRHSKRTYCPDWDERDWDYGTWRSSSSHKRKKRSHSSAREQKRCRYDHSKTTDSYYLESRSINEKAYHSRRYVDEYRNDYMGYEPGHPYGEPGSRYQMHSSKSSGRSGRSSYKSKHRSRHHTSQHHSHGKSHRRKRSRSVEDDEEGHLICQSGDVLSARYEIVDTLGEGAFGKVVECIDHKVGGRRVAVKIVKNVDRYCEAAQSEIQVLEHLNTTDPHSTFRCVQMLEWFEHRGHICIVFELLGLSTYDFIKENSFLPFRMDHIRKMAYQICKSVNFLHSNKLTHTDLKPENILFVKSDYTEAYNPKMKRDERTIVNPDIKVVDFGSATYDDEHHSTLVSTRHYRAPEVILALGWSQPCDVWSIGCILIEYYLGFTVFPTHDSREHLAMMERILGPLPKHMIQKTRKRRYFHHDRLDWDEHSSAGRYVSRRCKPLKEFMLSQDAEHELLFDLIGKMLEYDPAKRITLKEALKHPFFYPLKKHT
Chain of CLK3 (O35492 whole entry): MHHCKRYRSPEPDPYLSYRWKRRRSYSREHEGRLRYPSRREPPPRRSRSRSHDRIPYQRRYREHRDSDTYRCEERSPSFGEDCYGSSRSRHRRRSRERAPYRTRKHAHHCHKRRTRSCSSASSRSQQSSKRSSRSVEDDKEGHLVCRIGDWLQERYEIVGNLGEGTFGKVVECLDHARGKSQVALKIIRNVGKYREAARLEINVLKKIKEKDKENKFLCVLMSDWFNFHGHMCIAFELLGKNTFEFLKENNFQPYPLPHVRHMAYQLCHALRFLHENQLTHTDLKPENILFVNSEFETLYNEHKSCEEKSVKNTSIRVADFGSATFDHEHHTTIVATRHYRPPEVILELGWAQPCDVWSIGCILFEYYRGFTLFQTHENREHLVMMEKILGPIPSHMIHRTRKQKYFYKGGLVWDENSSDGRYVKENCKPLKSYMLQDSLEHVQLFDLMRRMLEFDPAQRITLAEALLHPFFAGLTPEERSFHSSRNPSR
Chain of CLK4 (O35493 whole entry): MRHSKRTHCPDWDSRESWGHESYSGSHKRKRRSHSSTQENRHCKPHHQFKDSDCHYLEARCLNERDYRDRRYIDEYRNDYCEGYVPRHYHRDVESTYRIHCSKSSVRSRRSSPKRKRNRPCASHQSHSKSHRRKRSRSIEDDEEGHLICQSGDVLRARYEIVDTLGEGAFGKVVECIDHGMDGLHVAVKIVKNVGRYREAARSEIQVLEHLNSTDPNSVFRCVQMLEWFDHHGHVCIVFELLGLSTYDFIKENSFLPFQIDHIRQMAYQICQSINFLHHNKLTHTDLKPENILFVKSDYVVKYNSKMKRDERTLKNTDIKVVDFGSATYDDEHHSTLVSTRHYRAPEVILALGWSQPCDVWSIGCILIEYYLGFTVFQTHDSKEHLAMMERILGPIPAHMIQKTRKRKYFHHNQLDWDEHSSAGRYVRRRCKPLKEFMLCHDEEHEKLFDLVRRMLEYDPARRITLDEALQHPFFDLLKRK
Chain of CLK2 (O35491 whole entry): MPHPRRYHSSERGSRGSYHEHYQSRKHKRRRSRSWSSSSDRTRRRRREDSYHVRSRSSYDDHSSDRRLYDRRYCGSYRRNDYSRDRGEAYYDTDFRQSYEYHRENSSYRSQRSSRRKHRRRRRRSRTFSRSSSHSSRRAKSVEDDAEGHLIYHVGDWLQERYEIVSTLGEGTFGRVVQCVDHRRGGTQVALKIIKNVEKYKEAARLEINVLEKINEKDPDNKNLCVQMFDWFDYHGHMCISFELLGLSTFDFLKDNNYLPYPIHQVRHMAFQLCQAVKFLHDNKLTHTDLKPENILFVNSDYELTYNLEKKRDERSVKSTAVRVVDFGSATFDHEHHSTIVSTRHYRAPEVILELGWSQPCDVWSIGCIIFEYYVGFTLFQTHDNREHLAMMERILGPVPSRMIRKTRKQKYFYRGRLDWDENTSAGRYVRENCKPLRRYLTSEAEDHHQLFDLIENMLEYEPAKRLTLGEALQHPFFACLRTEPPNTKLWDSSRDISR

| SMILES | remaining activity at 10 µM (DYRK1B) [%] | remaining activity at 10 µM (CLK3) [%] | remaining activity at 10 µM (CLK2) [%] | remaining activity at 10 µM (CLK1) [%] | remaining activity at 10 µM (DYRK1A [1]) [%] | remaining activity at 10 µM (CLK4) [%] | remaining activity at 10 µM (DYRK3) [%] | remaining activity at 10 µM (DYRK2) [%] | Residual Activity at 10 µM GSK3 (GSK-3) [%] | pIC50 (DYRK1B) | pIC50 (CLK3) | pIC50 (CLK2) | pIC50 (CLK1) | LLE (DYRK1A [2]) | pIC50 (DYRK1A [1]) | pIC50 (CLK4) | pIC50 (DYRK3) | pIC50 (DYRK2) | viability at 3 days, 1 µM [3] [%] |
| --- | --- | --- | --- | --- | --- | --- | --- | --- | --- | --- | --- | --- | --- | --- | --- | --- | --- | --- | --- |
| Cc1cccc2c(C#N)c(-c3ccccc3)[nH]c12 [Compound 6e, 7-Methyl-2-phenyl-1H-indole-3-carbonitrile] | 74 | 124 | 75 | 56 | 35 | 43 | 105 | 75 | – | – | – | – | – | – | – | – | – | – | – |
| N#Cc1c(-c2ccc(Cl)cc2)[nH]c2c(Cl)cccc12 [Compound 6i, 7-Chloro-2-(4-chlorophenyl)-1H-indole-3-carbonitrile] | – | – | – | 68 | 60 | – | – | – | 112 | – | – | – | – | – | – | – | – | – | – |
| COc1ccc(-c2[nH]c3c(Cl)cccc3c2C#N)cc1 [Compound 6j, 7-Chloro-2-(4-methoxyphenyl)-1H-indole-3-carbonitrile] | – | – | – | 47 | 60 | – | – | – | 118 | – | – | – | – | – | – | – | – | – | – |
| C=CCc1[nH]c2c(Cl)cccc2c1C#N [Compound 6k, 2-Allyl-7-chloro-1H-indole-3-carbonitrile] | – | – | – | – | – | – | – | – | – | 5.89 | < 5.00 | 5.89 | 6.27 | 2.77 | 6.16 | 6.27 | < 5.00 | < 5.00 | – |
| N#Cc1c(CCC2OCCCO2)[nH]c2c(Cl)cccc12 [Compound 6l, 2-(2-(1,3-Dioxan-2-yl)ethyl)-7-chloro-1H-indole-3-carbonitrile] | – | – | – | – | – | – | – | – | – | < 5.00 | < 5.00 | < 5.00 | 5.31 | 2.57 | 5.41 | 5.40 | < 5.00 | < 5.00 | – |
| N#Cc1c(-c2ccc(Cl)cc2)[nH]c2c(I)cccc12 [Compound 6m, 7-Iodo-2-(4-chlorophenyl)-1H-indole-3-carbonitrile] | 79 | 130 | 92 | 55 | 42 | 36 | 101 | 116 | – | – | – | – | – | – | – | – | – | – | – |
| COc1ccc(-c2[nH]c3c(I)cccc3c2C#N)cc1 [Compound 6n, 7-Iodo-2-(4-methoxyphenyl)-1H-indole-3-carbonitrile] | – | – | – | – | – | – | – | – | – | < 5.00 | < 5.00 | < 5.00 | 6.48 | 2.36 | 6.63 | 6.66 | < 5.00 | < 5.00 | – |
| COc1cccc(-c2[nH]c3c(I)cccc3c2C#N)c1 [Compound 6o, 7-Iodo-2-(3-methoxyphenyl)-1H-indole-3-carbonitrile] | – | – | – | – | – | – | – | – | – | 6.20 | < 5.00 | 5.48 | 6.20 | 2.41 | 6.68 | 6.54 | < 5.00 | < 5.00 | – |
| N#Cc1cn(Cc2ccccc2)c2c(Cl)cccc12 [Compound 13a, 1-Benzyl-7-chloro-1H-indole-3-carbonitrile] | 78 | 127 | 95 | 102 | 97 | 84 | 95 | 144 | – | – | – | – | – | – | – | – | – | – | – |
| Cn1cc(C#N)c2cccc(Cl)c21 [Compound 13c, 7-Chloro-1-methyl-1H-indole-3-carbonitrile] | 47 | 97 | 70 | 56 | 32 | 30 | 95 | 117 | – | – | – | – | – | – | – | – | – | – | – |
| CN[C@@H]1C[C@H]2O[C@@](C)([C@@H]1OC)n1c3ccccc3c3c4c(c5c6ccccc6n2c5c31)C(=O)NC4 [Staurosporine, reference compound] | – | – | – | – | – | – | – | – | – | – | – | – | – | – | – | – | – | – | 20 |
